Laboratory results published in ChEMBL document CHEMBL4725438, “Chiral Analogues of PFI-1 as BET Inhibitors and Their Functional Role in Myeloid Malignancies” (ACS Med Chem Lett, 2020).
Each block holds one compound with its values, some of them ahead of it. Active and inactive are the calls of the source. The rule behind the calls is not given here.

How the values were obtained:
[1] = biological target: Bromodomain-containing protein 4 (Homo sapiens) (UniProt O60885); experiment: Inhibition of BRD4 in human K562 cells harboring BCR-ABL assessed as decrease in metabolic activity at 10 uM measured after 72 hrs by MTT assay; format: cell-based
[2] = biological target: Bromodomain-containing protein 4 (Homo sapiens) (UniProt O60885); experiment: Inhibition of BRD4 in human MOLM-14 cells harboring FLT3-ITD mutant assessed as decrease in metabolic activity at 10 uM measured after 72 hrs by MTT assay; format: cell-based
[3] = biological target: Bromodomain-containing protein 4 (Homo sapiens) (UniProt O60885); experiment: Inhibition of BRD4 in human HEL cells harboring JAK2 V617F mutant assessed as decrease in metabolic activity at 10 uM measured after 72 hrs by MTT assay; format: cell-based
HEL [4] = experiment: Inhibition of BET in human HEL cells harboring JAK2 V617F mutant assessed as increase in HEXIM1 protein expression at 5 uM preincubated in medium for 24 to 48 hrs followed by cell addition and measured after 24 hrs by Western blot analysis; format: cell-based; details: time 96.0 hrs
[5] = Cytotoxicity against human PBMC assessed as reduction in colony formation at 1 to 5 uM measured after 7 to 11 days; format: tissue-based; details: dose 1-5 µM, time 7-11 day
[6] = biological target: Bromodomain-containing protein 4 (Homo sapiens) (UniProt O60885); experiment: Inhibition of BRD4 in human HEL cells harboring JAK2 V617F mutant assessed as cell cycle arrest by measuring increase in cell population at G0/G1 phase at 1 to 5 uM measured after 24 hrs by propidium iodide staining based FACS analysis; details: dose microM 1-5, time 24.0 hrs
[7] = biological target: Bromodomain-containing protein 4 (Homo sapiens) (UniProt O60885); experiment: Inhibition of BRD4 in human K562 cells harboring BCR-ABL assessed as decrease in metabolic activity at 0.01 to 20 uM measured after 72 hrs by MTT assay; format: cell-based; details: dose microM 0.01-20, time 72.0 hrs
[8] = biological target: Bromodomain-containing protein 4 (Homo sapiens) (UniProt O60885); experiment: Inhibition of BRD4 in human MOLM-14 cells harboring FLT3-ITD mutant assessed as cell cycle arrest by measuring decrease in cell population at S phase at 1 to 5 uM measured after 24 hrs by propidium iodide staining based FACS analysis; details: dose microM 1-5, time 24.0 hrs
MOLM-14 [9] = experiment: Inhibition of BET in human MOLM-14 cells harboring FLT3-ITD mutant assessed as increase in HEXIM1 protein expression at 5 uM preincubated in medium for 24 to 48 hrs followed by cell addition and measured after 24 hrs by Western blot analysis; format: cell-based; details: time 96.0 hrs
[10] = biological target: Bromodomain-containing protein 4 (Homo sapiens) (UniProt O60885); experiment: Inhibition of BRD4 in human MOLM-14 cells harboring FLT3-ITD mutant assessed as reduction in cell proliferation at 1 to 5 uM after 72 hrs by tryphan blue staining based assay; details: dose microM 1-5, time 72.0 hrs
[11] = biological target: Bromodomain-containing protein 4 (Homo sapiens) (UniProt O60885); experiment: Binding affinity to N-terminal His-tagged human recombinant BRD4 bromodomain 1 (44-170 residues) expressed in Escherichia coli assessed as change in melting temperature at 10 uM by BromoMELT assay
[12] = Cytotoxicity against human CD34+ cells assessed as reduction in colony formation at 1 to 5 uM measured after 7 to 11 days; format: cell-based; details: cd34-positive (myeloid/lymphoid) cell, dose 1-5 µM, time 7-11 day
HEL [13] = experiment: Induction of apoptosis in human HEL cells harboring JAK2 V617F mutant assessed as cleavage of PARP-1 at 5 uM measured after 24 to 48 hrs by Western blot analysis; format: functional, cell-based; details: time hrs 24-48
K562 [14] = experiment: Induction of apoptosis in human K562 cells harboring BCR-ABL assessed as cleavage of PARP-1 at 5 uM measured after 24 to 48 hrs by Western blot analysis; format: functional, cell-based; details: time hrs 24-48
MOLM-14 [15] = experiment: Inhibition of BET in human MOLM-14 cells harboring FLT3-ITD mutant assessed as decrease in AURKB protein expression at 5 uM measured after 24 to 48 hrs by Western blot analysis; format: cell-based; details: time hrs 24-48
K562 [16] = experiment: Inhibition of BET in human K562 cells harboring BCR-ABL assessed as increase in HEXIM1 protein expression at 5 uM measured after 24 to 48 hrs by Western blot analysis; format: cell-based; details: time hrs 24-48
[17] = biological target: Bromodomain-containing protein 4 (Homo sapiens) (UniProt O60885); experiment: Inhibition of BRD4 in human HEL cells harboring JAK2 V617F mutant assessed as cell viability at 5 uM measured after 72 hrs by tryphan blue staining based assay relative to control
BMMC = experiment: Anticlonogenic activity against AML patient derived BMMC harboring FLT3-ITD/FLT3-TKD mutant assessed as reduction in colony formation at 1 to 5 uM measured after 7 to 11 days; format: functional, tissue-based; details: Homo sapiens, dose microM 1-5, time day 7-11
[18] = biological target: Bromodomain-containing protein 4 (Homo sapiens) (UniProt O60885); experiment: Inhibition of BRD4 in human MOLM-14 cells harboring FLT3-ITD mutant assessed as cell cycle arrest by measuring increase in cell population at G0/G1 phase at 1 to 5 uM measured after 24 hrs by propidium iodide staining based FACS analysis; details: dose microM 1-5, time 24.0 hrs
K562 [19] = experiment: Inhibition of BET in human K562 cells harboring BCR-ABL assessed as increase in HEXIM1 protein expression at 5 uM preincubated in medium for 24 to 48 hrs followed by cell addition and measured after 24 hrs by Western blot analysis; format: cell-based; details: time 96.0 hrs
[20] = biological target: Bromodomain-containing protein 4 (Homo sapiens) (UniProt O60885); experiment: Inhibition of BRD4 in human K562 cells harboring BCR-ABL assessed as reduction in cell proliferation at 1 to 5 uM after 72 hrs by tryphan blue staining based assay; details: dose microM 1-5, time 72.0 hrs
[21] = biological target: Bromodomain-containing protein 4 (Homo sapiens) (UniProt O60885); experiment: Inhibition of BRD4 in human HEL cells harboring JAK2 V617F mutant assessed as cell cycle arrest by measuring increase in cell population at sub-G1 phase at 1 to 5 uM measured after 24 hrs by propidium iodide staining based FACS analysis; details: dose microM 1-5, time 24.0 hrs
[22] = biological target: Bromodomain-containing protein 4 (Homo sapiens) (UniProt O60885); experiment: Inhibition of BRD4 in human MOLM-14 cells harboring FLT3-ITD mutant assessed as metabolic activity at 1 uM measured after 72 hrs by MTT assay relative to control; format: cell-based; design: scale not given: the % may be the effect or the level left
HEL [23] = experiment: Inhibition of BET in human HEL cells harboring JAK2 V617F mutant assessed as decrease in AURKB protein expression at 5 uM measured after 24 to 48 hrs by Western blot analysis; format: cell-based; details: time hrs 24-48
[24] = biological target: Bromodomain-containing protein 4 (Homo sapiens) (UniProt O60885); experiment: Inhibition of BRD4 in human HEL cells harboring JAK2 V617F mutant assessed as reduction in cell proliferation at 1 to 5 uM after 72 hrs by tryphan blue staining based assay; details: dose microM 1-5, time 72.0 hrs
[25] = biological target: Bromodomain-containing protein 4 (Homo sapiens) (UniProt O60885); experiment: Inhibition of BRD4 in human HEL cells harboring JAK2 V617F mutant assessed as cell cycle arrest by measuring decrease in cell population at S phase at 1 to 5 uM measured after 24 hrs by propidium iodide staining based FACS analysis; details: dose microM 1-5, time 24.0 hrs
[26] = biological target: Bromodomain-containing protein 4 (Homo sapiens) (UniProt O60885); experiment: Inhibition of BRD4 in human MOLM-14 cells harboring FLT3-ITD mutant assessed as cell cycle arrest by measuring increase in cell population at sub-G1 phase at 1 to 5 uM measured after 24 hrs by propidium iodide staining based FACS analysis; details: dose microM 1-5, time 24.0 hrs
HEL [27] = experiment: Inhibition of BET in human HEL cells harboring JAK2 V617F mutant assessed as increase in HEXIM1 protein expression at 5 uM measured after 24 hrs by Western blot analysis; format: cell-based
MOLM-14 [28] = experiment: Induction of apoptosis in human MOLM-14 cells harboring FLT3-ITD mutant assessed as cleavage of PARP-1 at 5 uM measured after 24 to 48 hrs by Western blot analysis; format: functional, cell-based; details: time hrs 24-48
[29] = biological target: Bromodomain-containing protein 2 (Homo sapiens) (UniProt P25440); experiment: Binding affinity to N-terminal His-tagged human recombinant BRD2 bromodomain 1 (71 to 194 residues) expressed in Escherichia coli assessed as change in melting temperature at 10 uM by BromoMELT assay
[30] = biological target: Bromodomain-containing protein 4 (Homo sapiens) (UniProt O60885); experiment: Inhibition of BRD4 in human MOLM-14 cells harboring FLT3-ITD mutant assessed as cell viability at 5 uM measured after 72 hrs by tryphan blue staining based assay relative to control
MOLM-14 [31] = experiment: Inhibition of BET in human MOLM-14 cells harboring FLT3-ITD mutant assessed as increase in HEXIM1 protein expression at 5 uM measured after 24 hrs by Western blot analysis; format: cell-based
[32] = biological target: Bromodomain-containing protein 4 (Homo sapiens) (UniProt O60885); experiment: Inhibition of BRD4 in human HEL cells harboring JAK2 V617F mutant assessed as metabolic activity at 1 uM measured after 72 hrs by MTT assay relative to control; format: cell-based; design: Activity: scale not given: the % may be the effect or the level left
MOLM-14 [33] = experiment: Inhibition of BET in human MOLM-14 cells harboring FLT3-ITD mutant assessed as decrease in AURKB protein expression at 5 uM measured after 48 hrs by Western blot analysis; format: cell-based
HEL [34] = experiment: Inhibition of BET in human HEL cells harboring JAK2 V617F mutant assessed as increase in HEXIM1 protein expression at 5 uM measured after 24 to 48 hrs by Western blot analysis; format: cell-based; details: time hrs 24-48
K562 [35] = experiment: Inhibition of BET in human K562 cells harboring BCR-ABL assessed as decrease in AURKB protein expression at 5 uM measured after 48 hrs by Western blot analysis; format: cell-based
MOLM-14 [36] = experiment: Inhibition of BET in human MOLM-14 cells harboring FLT3-ITD mutant assessed as increase in HEXIM1 protein expression at 5 uM measured after 24 to 48 hrs by Western blot analysis; format: cell-based; details: time hrs 24-48

Bromodomain-containing protein 2 (Homo sapiens), sequence (P25440 whole entry, looked up, the tested form may be a part): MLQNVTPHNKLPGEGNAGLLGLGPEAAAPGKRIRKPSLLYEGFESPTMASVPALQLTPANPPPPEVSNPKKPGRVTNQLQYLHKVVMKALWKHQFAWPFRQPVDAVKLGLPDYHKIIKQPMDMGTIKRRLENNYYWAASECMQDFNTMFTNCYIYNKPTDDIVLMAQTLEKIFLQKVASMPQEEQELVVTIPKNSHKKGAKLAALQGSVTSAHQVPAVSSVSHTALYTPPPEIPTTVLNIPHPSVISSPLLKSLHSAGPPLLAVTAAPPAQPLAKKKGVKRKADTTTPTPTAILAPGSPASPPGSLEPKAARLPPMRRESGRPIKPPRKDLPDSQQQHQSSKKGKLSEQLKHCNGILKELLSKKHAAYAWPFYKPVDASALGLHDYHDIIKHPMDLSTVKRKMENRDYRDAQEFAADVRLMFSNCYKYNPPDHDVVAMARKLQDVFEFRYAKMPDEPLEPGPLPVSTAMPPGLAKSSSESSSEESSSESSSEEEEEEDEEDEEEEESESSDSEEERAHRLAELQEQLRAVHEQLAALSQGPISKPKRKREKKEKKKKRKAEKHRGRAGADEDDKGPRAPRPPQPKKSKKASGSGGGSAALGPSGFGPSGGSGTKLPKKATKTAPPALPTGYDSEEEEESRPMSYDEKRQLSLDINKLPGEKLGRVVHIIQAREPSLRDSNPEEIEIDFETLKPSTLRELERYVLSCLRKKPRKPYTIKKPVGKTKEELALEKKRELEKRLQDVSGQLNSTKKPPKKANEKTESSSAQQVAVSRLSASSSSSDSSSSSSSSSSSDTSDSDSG

SMILES: CN1Cc2cc(N=S(C)(=N)c3ccccc3)ccc2NC1=O (stereo unspecified)
inhibition [1]: inactive | inhibition [2]: Active | inhibition [3]: Active

SMILES: CN1Cc2cc(N=[S@@](C)(=O)c3ccccc3)ccc2NC1=O
inhibition (HEL [4]): Active | Activity [5]: Toxic | inhibition [6]: Active | inhibition [7]: inactive | inhibition [8]: Active | inhibition (MOLM-14 [9]): Active | inhibition [10]: Active | ΔTm [11]: 5 °C | Activity [12]: Toxic | Activity (HEL [13]): Active | Activity (K562 [14]): inactive | inhibition (MOLM-14 [15]): Active | inhibition (K562 [16]): Active | Activity [17]: 55% | Activity (BMMC): Active | inhibition [18]: Active | inhibition (K562 [19]): Active | inhibition [20]: Active | inhibition [21]: Active | Activity [22]: 55% | inhibition (HEL [23]): Active | inhibition [24]: Active | inhibition [25]: Active | inhibition [26]: Active | inhibition (HEL [27]): Active | Activity (MOLM-14 [28]): Active | ΔTm [29]: 3.5 °C | Activity [30]: 57% | inhibition (MOLM-14 [31]): Active | Activity [32]: 37%

SMILES: COc1ccccc1S(C)(=O)=Nc1ccc2c(c1)CN(C)C(=O)N2 (stereo unspecified)
inhibition [1]: inactive | inhibition [2]: Active | inhibition [3]: Active

SMILES: COc1ccccc1S(=O)(=O)Nc1ccc2c(c1)CN(C)C(=O)N2
Activity [5]: Toxic | Activity [12]: Toxic | inhibition (K562 [16]): Active | Activity (BMMC): Active | inhibition (HEL [27]): Active | ΔTm [29]: 3.5 °C | inhibition (MOLM-14 [31]): Active

Now from value to compound, other results behind:

inhibition [32]: inactive
SMILES: CN1Cc2cc(N=[S@](C)(=O)c3ccccc3)ccc2NC1=O
inhibition (MOLM-14 [33]): Active | Activity (HEL [13]): inactive | inhibition (HEL [34]): inactive | inhibition (K562 [35]): Active | inhibition (MOLM-14 [36]): inactive | Activity (MOLM-14 [28]): inactive

inhibition [1]: inactive | inhibition [2]: Active | inhibition [3]: Active
SMILES: CN=S(C)(=Nc1ccc2c(c1)CN(C)C(=O)N2)c1ccccc1 (stereo unspecified)

inhibition [1]: inactive | inhibition [2]: Active | inhibition [3]: Active
SMILES: CN1Cc2cc(N=S(C)(=Nc3ccccc3)c3ccccc3)ccc2NC1=O (stereo unspecified)
